Measurements reported in US20240059682A1, “THYROID HORMONE RECEPTOR BETA AGONIST COMPOUNDS” (Terns Pharmaceuticals, Inc., priority 2021, published 2024).
Where two headings read alike, the source gives them in different places.

Tests used:
[1] = Tissue distribution in rats; assay type: in vivo, male Sprague-Dawley (SD) rats; details: 2 hours post-dose, male SD rats; for Kp at 2 h / concentration at 2 h: Sprague-Dawley, rat
Protocol: Examples 12 and 14 were administered via a 30-minute intravenous (IV) infusion at approximately 2 mg/kg to jugular vein cannulated male Sprague-Dawley (SD) rats. All animals were euthanized by CO2 inhalation at 2 hours post-dose. The concentrations of Examples 12 and 14 in rat plasma and liver, heart and kidney tissues were determined with an LC-MS/MS method.

[2] = Pharmacokinetics study in rats; assay type: in vivo, male Sprague-Dawley (SD) rats; details: male SD rats; for AUC(0-inf) / half-life / clearance / Vd / bioavailability / AUC(0-t) / Cmax: Sprague-Dawley, rat, plasma; for clearance: mean±SD, read-out: plasma clearance (CL); for Vd: read-out: volume of distribution (Vdss)
Protocol: Examples 12 and 14 were administered via a 30-minute intravenous (IV) infusion at approximately 1 mg/kg and orally at approximately 3 mg/kg to male Sprague-Dawley (SD) rats. The concentrations of Examples 12 and 14 in rat plasma was determined with an LC-MS/MS method.

THR-β/RXR-α = THR-β/RXR-α (Homo sapiens (Human), UniProt P10828); assay: THR/RXR heterodimer assay (THR-β/RXR-α); assay type: biochemical; details: RXR heterodimer assay; for THRß-Selectivity: normalized to T3 activity
TR beta-LBD = TR beta-LBD (Homo sapiens (Human), UniProt P10828); details: TR-FRET; derived from T3-selectivity normalized data
THR-α/RXR-α = THR-α/RXR-α (Homo sapiens (Human), UniProt P10827); assay: THR/RXR heterodimer assay (THR-α/RXR-α); assay type: biochemical; details: RXR heterodimer assay; read-out: EC50 THRα-het
THR-α/RXR-α, sequence (P10827 other isoform, or with tags, fused parts or gaps): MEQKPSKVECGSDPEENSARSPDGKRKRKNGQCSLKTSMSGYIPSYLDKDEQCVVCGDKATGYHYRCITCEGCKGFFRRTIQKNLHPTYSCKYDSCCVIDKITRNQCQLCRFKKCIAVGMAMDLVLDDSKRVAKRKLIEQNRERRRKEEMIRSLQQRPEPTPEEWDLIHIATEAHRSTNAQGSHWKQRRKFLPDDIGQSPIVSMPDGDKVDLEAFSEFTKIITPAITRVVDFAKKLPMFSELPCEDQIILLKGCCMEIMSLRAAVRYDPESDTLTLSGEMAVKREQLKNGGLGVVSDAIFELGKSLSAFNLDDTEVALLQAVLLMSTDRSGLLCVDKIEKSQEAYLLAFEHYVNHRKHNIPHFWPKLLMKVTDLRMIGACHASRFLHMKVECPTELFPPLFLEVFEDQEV
THR-α/RXR-α, sequence (P19793 225-462 partner): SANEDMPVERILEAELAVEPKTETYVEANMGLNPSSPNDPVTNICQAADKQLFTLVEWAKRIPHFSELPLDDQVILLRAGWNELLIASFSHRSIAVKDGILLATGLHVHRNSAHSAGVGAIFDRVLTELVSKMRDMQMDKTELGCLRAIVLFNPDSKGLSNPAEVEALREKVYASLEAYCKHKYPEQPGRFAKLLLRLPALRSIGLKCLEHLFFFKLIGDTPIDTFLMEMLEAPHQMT
THR-α/RXR-α, sequence (Q15596 679-703 partner): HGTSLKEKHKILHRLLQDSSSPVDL

THR-β/RXR-α, sequence (P10828 202-461): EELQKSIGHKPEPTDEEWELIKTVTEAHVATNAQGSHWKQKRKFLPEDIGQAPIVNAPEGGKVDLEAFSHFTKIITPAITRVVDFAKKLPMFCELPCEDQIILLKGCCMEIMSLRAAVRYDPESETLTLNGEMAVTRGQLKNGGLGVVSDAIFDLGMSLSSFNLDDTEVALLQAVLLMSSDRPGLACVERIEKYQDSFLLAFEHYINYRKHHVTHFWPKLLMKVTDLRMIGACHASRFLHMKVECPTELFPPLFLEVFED
THR-β/RXR-α, sequence (P19793 225-462 partner): as the sequence (P19793 225-462 partner) above
TR beta-LBD, sequence (P10828 whole entry, looked up, the tested form may be a part): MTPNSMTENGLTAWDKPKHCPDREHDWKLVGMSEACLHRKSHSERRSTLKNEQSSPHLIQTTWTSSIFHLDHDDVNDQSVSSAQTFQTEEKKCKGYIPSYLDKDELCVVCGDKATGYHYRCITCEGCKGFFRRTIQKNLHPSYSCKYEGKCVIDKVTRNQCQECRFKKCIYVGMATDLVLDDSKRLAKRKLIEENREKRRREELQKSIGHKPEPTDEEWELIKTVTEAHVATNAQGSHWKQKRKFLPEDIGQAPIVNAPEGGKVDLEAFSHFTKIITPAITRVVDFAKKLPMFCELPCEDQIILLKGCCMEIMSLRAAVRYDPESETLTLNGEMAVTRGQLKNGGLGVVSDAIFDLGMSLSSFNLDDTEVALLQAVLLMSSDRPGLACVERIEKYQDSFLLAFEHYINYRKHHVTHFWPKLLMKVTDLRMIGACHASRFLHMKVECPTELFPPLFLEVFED

COc1nc2ccc(Oc3c(Cl)cc(-n4nc(C#N)c(=O)[nH]c4=O)cc3Cl)cc2n1C1(C)CC1 [Example 12, 2-(3,5-dichloro-4-((2-methoxy-1-(1-methylcyclopropyl)-1H-benzo[d]imidazol-6-yl)oxy)phenyl)-3,5-dioxo-2,3,4,5-tetrahydro-1,2,4-triazine-6-carbonitrile]
Kp at 2 h ([1]; heart/plasma, IV infusion 2.0 mg/kg, read-out: tissue/plasma ratio heart/plasma): 1.65 ± 2.33 | concentration at 2 h ([1]; heart, IV infusion 2.0 mg/kg, read-out: tissue concentration in heart): 995 ± 1430 ng/g | Kp at 2 h ([1]; kidney/plasma, IV infusion 2.0 mg/kg, read-out: tissue/plasma ratio kidney/plasma): 1.01 ± 0.212 | concentration at 2 h ([1]; kidney, IV infusion 2.0 mg/kg, read-out: tissue concentration in kidney): 558 ± 103 ng/g | Kp at 2 h ([1]; liver/plasma, IV infusion 2.0 mg/kg, read-out: tissue/plasma ratio liver/plasma): 5.62 ± 1.09 | concentration at 2 h ([1]; liver, IV infusion 2.0 mg/kg, mean±SD, read-out: tissue concentration in liver): 3040 ± 350 ng/g | concentration at 2 h ([1]; plasma, IV infusion 2.0 mg/kg, read-out: plasma concentration): 0.569 ± 0.145 µg/mL | AUC(0-inf) ([2]; IV infusion 1.09 mg/kg): 3.78 ± 0.704 µg·h/mL | half-life ([2]; IV infusion 1.09 mg/kg): 2.67 ± 0.53 h | clearance ([2]; IV infusion 1.09 mg/kg): 0.271 ± 0.053 L/h/kg | Vd ([2]; IV infusion 1.09 mg/kg): 0.638 ± 0.218 L/kg | bioavailability ([2]; oral 3.0 mg/kg vs IV 1.09 mg/kg): 95.2% | AUC(0-inf) ([2]; oral 3.0 mg/kg): 10.8 ± 5.63 µg·h/mL | AUC(0-t) ([2]; oral 3.0 mg/kg): 10.8 ± 5.63 µg·h/mL | Cmax ([2]; oral 3.0 mg/kg): 2.02 ± 0.793 µg/mL | time post-dose at which Cmax was reached ([2]; oral 3.0 mg/kg): 3.33 ± 1.15 h | THRß-Selectivity (THR-β/RXR-α): 18.7

COc1nc2ccc(Oc3c(Cl)cc(-n4nc(C#N)c(=O)[nH]c4=O)cc3Cl)cc2n1C1CC1 [Example 2, 2-(3,5-dichloro-4-((1-cyclopropyl-2-methoxy-1H-benzo[d]imidazol-6-yl)oxy)phenyl)-3,5-dioxo-2,3,4,5-tetrahydro-1,2,4-triazine-6-carbonitrile]
THRß-Selectivity (THR-β/RXR-α): 16.9

O=C(Nc1cc(Cl)c(Oc2ccc3[nH]c(=O)n(C4CC4)c3c2)c(Cl)c1)c1noc(=O)[nH]1 [Example 1, N-(3,5-dichloro-4-((3-cyclopropyl-2-oxo-2,3-dihydro-1H-benzo[d]imidazol-5-yl)oxy)phenyl)-5-oxo-4,5-dihydro-1,2,4-oxadiazole-3-carboxamide]
THRß-Selectivity (THR-β/RXR-α): 5.1

O=C(Nc1cc(Cl)c(Oc2ccc3[nH]c(=O)n(C4(C(F)F)CC4)c3c2)c(Cl)c1)c1noc(=O)[nH]1 [Example 17, N-(3,5-dichloro-4-((3-(1-(difluoromethyl)cyclopropyl)-2-oxo-2,3-dihydro-1H-benzo[d]imidazol-5-yl)oxy)phenyl)-5-oxo-4,5-dihydro-1,2,4-oxadiazole-3-carboxamide]
THRß-Selectivity (THR-β/RXR-α): 10.1

CC(C)(C)n1c(=O)[nH]c2ccc(Oc3c(Cl)cc(-n4nc(C#N)c(=O)[nH]c4=O)cc3Cl)cc21 [Example 16, 2-(4-((3-(tert-butyl)-2-oxo-2,3-dihydro-1H-benzo[d]imidazol-5-yl)oxy)-3,5-dichlorophenyl)-3,5-dioxo-2,3,4,5-tetrahydro-1,2,4-triazine-6-carbonitrile]
THRß-Selectivity (THR-β/RXR-α): 9.8

Cn1c(=O)[nH]c2ccc(Oc3c(Cl)cc(NC(=O)c4noc(=O)[nH]4)cc3Cl)cc21 [Example 19, N-(3,5-dichloro-4-((3-methyl-2-oxo-2,3-dihydro-1H-benzo[d]imidazol-5-yl)oxy)phenyl)-5-oxo-4,5-dihydro-1,2,4-oxadiazole-3-carboxamide]
THRß-Selectivity (TR beta-LBD): 14.1 | THRß-Selectivity (THR-β/RXR-α): 5.3

COc1nc2ccc(Oc3c(Cl)cc(NC(=O)c4noc(=O)[nH]4)cc3Cl)cc2n1C1(C(F)(F)F)CC1 [Example 24]
THRß-Selectivity (THR-β/RXR-α): 6.7 | EC50 (THR-β/RXR-α; read-out: EC50 THRß-het): 0.48 µM | EC50 (THR-α/RXR-α): 3.23 µM

COc1nc2ccc(Oc3c(Cl)cc(NC(=O)c4noc(=O)[nH]4)cc3Cl)cc2n1C(C)C [Example 6, N-(3,5-dichloro-4-((1-isopropyl-2-methoxy-1H-benzo[d]imidazol-6-yl)oxy)phenyl)-5-oxo-4,5-dihydro-1,2,4-oxadiazole-3-carboxamide]
THRß-Selectivity (THR-β/RXR-α): 16.9

CC(C)n1c(=O)[nH]c2ccc(Oc3c(Cl)cc(-n4nc(C#N)c(=O)[nH]c4=O)cc3Cl)cc21 [Example 5, 2-(3,5-dichloro-4-((3-isopropyl-2-oxo-2,3-dihydro-1H-benzo[d]imidazol-5-yl)oxy)phenyl)-3,5-dioxo-2,3,4,5-tetrahydro-1,2,4-triazine-6-carbonitrile]
THRß-Selectivity (THR-β/RXR-α): 5.8

CC(C)(C)n1c(=O)[nH]c2ccc(Oc3c(Cl)cc(NC(=O)c4noc(=O)[nH]4)cc3Cl)cc21 [Example 10, N-(4-((3-(tert-butyl)-2-oxo-2,3-dihydro-1H-benzo[d]imidazol-5-yl)oxy)-3,5-dichlorophenyl)-5-oxo-4,5-dihydro-1,2,4-oxadiazole-3-carboxamide]
THRß-Selectivity (THR-β/RXR-α): 7.7

CC1(n2c(=O)[nH]c3ccc(Oc4c(Cl)cc(NC(=O)c5noc(=O)[nH]5)cc4Cl)cc32)CC1 [Example 13, N-(3,5-dichloro-4-((3-(1-methylcyclopropyl)-2-oxo-2,3-dihydro-1H-benzo[d]imidazol-5-yl)oxy)phenyl)-5-oxo-4,5-dihydro-1,2,4-oxadiazole-3-carboxamide]
THRß-Selectivity (THR-β/RXR-α): 11.0

COc1nc2ccc(Oc3c(Cl)cc(NC(=O)c4noc(=O)[nH]4)cc3Cl)cc2n1C1(C)CC1 [Example 11, N-(3,5-dichloro-4-((2-methoxy-1-(1-methylcyclopropyl)-1H-benzo[d]imidazol-6-yl)oxy)phenyl)-5-oxo-4,5-dihydro-1,2,4-oxadiazole-3-carboxamide]
THRß-Selectivity (THR-β/RXR-α): 17.7

N#Cc1nn(-c2cc(Cl)c(Oc3ccc4[nH]c(=O)n(C5CC5)c4c3)c(Cl)c2)c(=O)[nH]c1=O [Example 8, 2-(3,5-dichloro-4-((3-cyclopropyl-2-oxo-2,3-dihydro-1H-benzo[d]imidazol-5-yl)oxy)phenyl)-3,5-dioxo-2,3,4,5-tetrahydro-1,2,4-triazine-6-carbonitrile]
THRß-Selectivity (THR-β/RXR-α): 7.2

N#Cc1nn(-c2cc(Cl)c(Oc3ccc4[nH]c(=O)n(C5(C(F)F)CC5)c4c3)c(Cl)c2)c(=O)[nH]c1=O [Example 18, 2-(3,5-dichloro-4-((3-(1-(difluoromethyl)cyclopropyl)-2-oxo-2,3-dihydro-1H-benzo[d]imidazol-5-yl)oxy)phenyl)-3,5-dioxo-2,3,4,5-tetrahydro-1,2,4-triazine-6-carbonitrile]
THRß-Selectivity (THR-β/RXR-α): 8.2

COc1nc2ccc(Oc3c(Cl)cc(-n4nc(C#N)c(=O)[nH]c4=O)cc3Cl)cc2n1C(C)(C)C [Example 15, 2-(4-((1-(tert-butyl)-2-methoxy-1H-benzo[d]imidazol-6-yl)oxy)-3,5-dichlorophenyl)-3,5-dioxo-2,3,4,5-tetrahydro-1,2,4-triazine-6-carbonitrile]
THRß-Selectivity (THR-β/RXR-α): 10.3

CC1(n2c(=O)[nH]c3ccc(Oc4c(Cl)cc(-n5nc(C#N)c(=O)[nH]c5=O)cc4Cl)cc32)CC1 [Example 14, 2-(3,5-dichloro-4-((3-(1-methylcyclopropyl)-2-oxo-2,3-dihydro-1H-benzo[d]imidazol-5-yl)oxy)phenyl)-3,5-dioxo-2,3,4,5-tetrahydro-1,2,4-triazine-6-carbonitrile]
tissue concentration in heart ([1]; IV infusion 2.16 mg/kg): below the limit of detection | Kp at 2 h ([1]; kidney/plasma, IV infusion 2.16 mg/kg, read-out: tissue/plasma ratio kidney/plasma): 6.25 ± 2.13 | concentration at 2 h ([1]; kidney, IV infusion 2.16 mg/kg, read-out: tissue concentration in kidney): 94 ± 23.5 ng/g | Kp at 2 h ([1]; liver/plasma, IV infusion 2.16 mg/kg, read-out: tissue/plasma ratio liver/plasma): 29 ± 24.9 | concentration at 2 h ([1]; liver, IV infusion 2.16 mg/kg, read-out: tissue concentration in liver): 413 ± 303 ng/g | concentration at 2 h ([1]; plasma, IV infusion 2.16 mg/kg, read-out: plasma concentration): 0.0155 ± 0.0037 µg/mL | AUC(0-inf) ([2]; IV infusion 1.09 mg/kg): 0.55 ± 0.0196 µg·h/mL | half-life ([2]; IV infusion 1.09 mg/kg): 1.51 ± 0.54 h | clearance ([2]; IV infusion 1.09 mg/kg): 1.82 ± 0.0642 L/h/kg | Vd ([2]; IV infusion 1.09 mg/kg): 1.28 ± 0.387 L/kg | bioavailability ([2]; oral 3.18 mg/kg vs IV 1.09 mg/kg): 11.5% | AUC(0-inf) ([2]; oral 3.18 mg/kg): 0.19 ± 0.0287 µg·h/mL | AUC(0-t) ([2]; oral 3.18 mg/kg): 0.178 ± 0.0255 µg·h/mL | Cmax ([2]; oral 3.18 mg/kg): 0.031 ± 0.00592 µg/mL | time post-dose at which Cmax was reached ([2]; oral 3.18 mg/kg): 4.0 ± 2.0 h | THRß-Selectivity (THR-β/RXR-α): 12.0

COc1nc2ccc(Oc3c(Cl)cc(NC(=O)c4noc(=O)[nH]4)cc3Cl)cc2n1C [Example 3, N-(3,5-dichloro-4-((2-methoxy-1-methyl-1H-benzo[d]imidazol-6-yl)oxy)phenyl)-5-oxo-4,5-dihydro-1,2,4-oxadiazole-3-carboxamide]
THRß-Selectivity (THR-β/RXR-α): 9.7

COc1nc2ccc(Oc3c(Cl)cc(NC(=O)c4noc(=O)[nH]4)cc3Cl)cc2n1C1CC1 [Example 7, N-(3,5-dichloro-4-((1-cyclopropyl-2-methoxy-1H-benzo[d]imidazol-6-yl)oxy)phenyl)-5-oxo-4,5-dihydro-1,2,4-oxadiazole-3-carboxamide]
THRß-Selectivity (THR-β/RXR-α): 21.2
